Laboratory results from ChEMBL document CHEMBL4346735, “Discovery and pharmacological evaluation of indole derivatives as potent and selective RORγt inverse agonist for multiple autoimmune conditions” (Bioorg Med Chem Lett, 2019).
pIC50: −log10 of the molar value. ≈ marks a conversion by molar mass, not a printed value.

Experiments:
[1] = Cmax in mouse at 10 mg/kg, po; format: ADME, organism-based; parameters: dose 10 mg/kg, route oral; settings: in vivo
[2] = Tmax in mouse at 10 mg/kg, po; format: ADME, organism-based; settings: in vivo
[3] = AUC (0 to 24 hrs) in mouse at 10 mg/kg, po; format: ADME, organism-based; parameters: dose 10 mg/kg, time < 24 hr, route oral; settings: in vivo
[4] = Volume of distribution at steady state in mouse at 3 mg/kg, iv; format: ADME, organism-based; settings: in vivo, read-out: Vdss
[5] = Clearance in mouse at 3 mg/kg, iv; format: ADME, organism-based; settings: in vivo
[6] = Half life in mouse at 3 mg/kg, iv; format: ADME, organism-based; settings: in vivo
[7] = Oral bioavailability in mouse at 10 mg/kg; format: ADME, organism-based; settings: in vivo
[8] = target: T1, Nuclear receptor ROR-alpha (Homo sapiens, UniProt P35398); test: Inhibition of GAL4-DBD fused RORalpha LBD (unknown origin) expressed in HEK293T cells; format: cell-based
T1 sequence (P35398 whole entry): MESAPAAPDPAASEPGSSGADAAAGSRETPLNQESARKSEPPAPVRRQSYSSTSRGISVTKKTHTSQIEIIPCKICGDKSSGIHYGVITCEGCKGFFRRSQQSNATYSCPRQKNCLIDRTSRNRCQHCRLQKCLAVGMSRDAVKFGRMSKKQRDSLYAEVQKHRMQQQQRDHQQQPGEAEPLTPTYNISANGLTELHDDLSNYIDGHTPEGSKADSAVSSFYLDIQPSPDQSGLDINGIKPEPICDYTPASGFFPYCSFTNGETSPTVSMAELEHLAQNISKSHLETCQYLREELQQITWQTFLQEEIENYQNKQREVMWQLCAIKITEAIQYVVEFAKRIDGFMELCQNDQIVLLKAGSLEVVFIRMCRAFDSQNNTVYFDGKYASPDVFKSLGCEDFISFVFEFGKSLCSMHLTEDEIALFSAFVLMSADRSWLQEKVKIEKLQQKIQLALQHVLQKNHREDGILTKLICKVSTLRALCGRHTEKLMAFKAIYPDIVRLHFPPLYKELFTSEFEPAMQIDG

[9] = Metabolic stability in mouse liver microsomes assessed as parent compound remaining at 1 uM preincubated for 5 mins followed by NADPH addition after 30 mins by LC-MS/MS analysis; format: ADME, Microsome; settings: read-out: Stability
[10] = Metabolic stability in rat liver microsomes assessed as parent compound remaining at 1 uM preincubated for 5 mins followed by NADPH addition after 30 mins by LC-MS/MS analysis; format: ADME, Microsome; settings: read-out: Stability
[11] = Metabolic stability in human liver microsomes assessed as parent compound remaining at 1 uM preincubated for 5 mins followed by NADPH addition after 30 mins by LC-MS/MS analysis; format: ADME, Microsome; settings: read-out: Stability
[12] = target: T2, Nuclear receptor ROR-gamma (Homo sapiens, UniProt P51449); test: Transactivation of recombinant GAL4-DBD fused RORgammat LBD (unknown origin) expressed in HEK293T cells incubated for 18 to 24 hrs by dual-Glo luciferase assay; format: cell-based
T2 sequence (P51449 whole entry): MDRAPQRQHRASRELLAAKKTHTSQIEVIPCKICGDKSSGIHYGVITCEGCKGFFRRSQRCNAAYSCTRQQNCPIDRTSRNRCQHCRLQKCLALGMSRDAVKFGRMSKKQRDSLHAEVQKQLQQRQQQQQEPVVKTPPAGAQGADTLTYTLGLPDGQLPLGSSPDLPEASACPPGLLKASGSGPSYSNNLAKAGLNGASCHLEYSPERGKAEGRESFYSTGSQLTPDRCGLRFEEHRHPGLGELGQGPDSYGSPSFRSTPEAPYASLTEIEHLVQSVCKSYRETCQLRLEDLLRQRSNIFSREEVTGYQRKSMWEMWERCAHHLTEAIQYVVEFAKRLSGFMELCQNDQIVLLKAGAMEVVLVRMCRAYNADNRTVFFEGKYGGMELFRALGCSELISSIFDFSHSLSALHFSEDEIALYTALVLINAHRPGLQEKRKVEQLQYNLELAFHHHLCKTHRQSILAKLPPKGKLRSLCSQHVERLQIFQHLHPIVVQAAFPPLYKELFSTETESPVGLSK

Cytochrome P450 1A2 = target: T3, Cytochrome P450 1A2 (Homo sapiens, UniProt P05177); test: Inhibition of CYP1A2 in human liver microsomes using phenacetin as substrate preincubated for 5 mins followed by NADPH addition measured after 10 mins by LC-MS/MS analysis
T3 sequence (P05177 whole entry): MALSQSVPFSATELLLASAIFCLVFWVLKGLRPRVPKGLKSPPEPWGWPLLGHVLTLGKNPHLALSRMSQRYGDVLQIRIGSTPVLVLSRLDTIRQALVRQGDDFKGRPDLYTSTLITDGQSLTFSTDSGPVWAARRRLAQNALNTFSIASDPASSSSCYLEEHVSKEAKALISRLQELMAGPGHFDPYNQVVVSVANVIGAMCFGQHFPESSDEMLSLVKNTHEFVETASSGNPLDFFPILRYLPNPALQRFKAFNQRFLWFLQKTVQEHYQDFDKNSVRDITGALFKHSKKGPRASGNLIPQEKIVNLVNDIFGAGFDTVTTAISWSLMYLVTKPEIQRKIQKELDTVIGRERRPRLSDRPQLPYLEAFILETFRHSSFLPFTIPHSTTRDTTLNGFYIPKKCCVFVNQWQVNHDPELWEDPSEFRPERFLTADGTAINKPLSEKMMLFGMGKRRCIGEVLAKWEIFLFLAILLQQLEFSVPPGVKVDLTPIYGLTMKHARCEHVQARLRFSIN

Cytochrome P450 2C9 = Cytochrome P450 2C9 (Homo sapiens, UniProt P11712); test: Inhibition of CYP2C9 in human liver microsomes using diclofenac as substrate preincubated for 5 mins followed by NADPH addition measured after 10 mins by LC-MS/MS analysis
Cytochrome P450 2C19 = Cytochrome P450 2C19 (Homo sapiens, UniProt P33261); test: Inhibition of CYP2C19 in human liver microsomes using (S)-mephenytoin as substrate preincubated for 5 mins followed by NADPH addition measured after 40 mins by LC-MS/MS analysis
Cytochrome P450 2D6 = Cytochrome P450 2D6 (Homo sapiens, UniProt P10635); test: Inhibition of CYP2D6 in human liver microsomes using dextromethorphan as substrate preincubated for 5 mins followed by NADPH addition measured after 10 mins by LC-MS/MS analysis
Cytochrome P450 3A4 [13] = target: T4, Cytochrome P450 3A4 (Homo sapiens, UniProt P08684); test: Inhibition of CYP3A4 in human liver microsomes using testosterone as substrate preincubated for 5 mins followed by NADPH addition measured after 10 mins by LC-MS/MS analysis
[14] = Solubility of the compound at pH 2.1; settings: buffer
[15] = Solubility of the compound at pH 4; settings: buffer
[16] = Solubility of the compound at pH 7.4; settings: buffer
Cytochrome P450 3A4 [17] = target: T4, Cytochrome P450 3A4; test: Inhibition of CYP3A4 in human liver microsomes using midazolam as substrate preincubated for 5 mins followed by NADPH addition measured after 10 mins by LC-MS/MS analysis
[18] = target: T2, Nuclear receptor ROR-gamma; test: Inverse agonist activity at GST-tagged RORgammat LBD (unknown origin) using fluorescein-D22 co-activator peptide as substrate incubated for 1 hr by TR-FRET assay

T4 sequence (P08684 whole entry): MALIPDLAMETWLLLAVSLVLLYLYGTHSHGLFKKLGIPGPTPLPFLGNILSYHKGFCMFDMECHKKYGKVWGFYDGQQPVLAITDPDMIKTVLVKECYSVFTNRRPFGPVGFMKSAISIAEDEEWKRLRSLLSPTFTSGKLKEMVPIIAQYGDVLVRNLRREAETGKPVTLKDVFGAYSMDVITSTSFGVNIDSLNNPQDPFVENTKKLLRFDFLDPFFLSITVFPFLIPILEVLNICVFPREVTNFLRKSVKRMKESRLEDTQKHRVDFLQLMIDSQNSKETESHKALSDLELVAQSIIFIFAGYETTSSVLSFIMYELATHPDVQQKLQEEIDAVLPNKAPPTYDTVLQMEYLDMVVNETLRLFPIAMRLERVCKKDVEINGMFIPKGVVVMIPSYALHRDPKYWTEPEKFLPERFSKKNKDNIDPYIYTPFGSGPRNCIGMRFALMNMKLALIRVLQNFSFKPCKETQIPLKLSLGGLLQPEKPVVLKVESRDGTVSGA
Cytochrome P450 2C9, sequence (P11712 whole entry): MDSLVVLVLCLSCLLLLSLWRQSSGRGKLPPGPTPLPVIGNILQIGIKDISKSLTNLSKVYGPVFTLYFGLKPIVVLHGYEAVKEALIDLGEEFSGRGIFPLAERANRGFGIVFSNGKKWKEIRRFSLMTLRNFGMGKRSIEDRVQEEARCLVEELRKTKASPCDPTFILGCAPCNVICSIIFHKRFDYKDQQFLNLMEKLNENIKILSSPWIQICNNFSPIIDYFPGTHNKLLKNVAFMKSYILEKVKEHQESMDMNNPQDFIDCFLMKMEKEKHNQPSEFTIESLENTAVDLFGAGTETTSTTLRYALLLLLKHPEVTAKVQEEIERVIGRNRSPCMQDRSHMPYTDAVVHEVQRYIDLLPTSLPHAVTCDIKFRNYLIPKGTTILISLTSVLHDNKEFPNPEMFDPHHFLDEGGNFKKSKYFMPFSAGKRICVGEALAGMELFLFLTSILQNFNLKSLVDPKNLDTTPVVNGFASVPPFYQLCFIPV
Cytochrome P450 2C19, sequence (P33261 whole entry): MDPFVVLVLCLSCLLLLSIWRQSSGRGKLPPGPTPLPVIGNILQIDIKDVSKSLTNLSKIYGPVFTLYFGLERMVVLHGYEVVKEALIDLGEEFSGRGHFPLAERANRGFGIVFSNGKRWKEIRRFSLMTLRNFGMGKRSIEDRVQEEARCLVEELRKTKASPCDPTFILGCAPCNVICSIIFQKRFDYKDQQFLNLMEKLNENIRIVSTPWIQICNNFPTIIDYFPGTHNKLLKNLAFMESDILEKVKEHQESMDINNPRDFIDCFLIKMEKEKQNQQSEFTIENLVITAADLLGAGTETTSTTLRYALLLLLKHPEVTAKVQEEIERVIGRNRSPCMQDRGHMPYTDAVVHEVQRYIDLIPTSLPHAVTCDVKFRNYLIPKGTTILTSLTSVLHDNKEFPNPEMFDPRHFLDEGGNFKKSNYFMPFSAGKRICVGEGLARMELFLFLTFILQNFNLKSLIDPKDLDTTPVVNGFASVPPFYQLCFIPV
Cytochrome P450 2D6, sequence (P10635 whole entry): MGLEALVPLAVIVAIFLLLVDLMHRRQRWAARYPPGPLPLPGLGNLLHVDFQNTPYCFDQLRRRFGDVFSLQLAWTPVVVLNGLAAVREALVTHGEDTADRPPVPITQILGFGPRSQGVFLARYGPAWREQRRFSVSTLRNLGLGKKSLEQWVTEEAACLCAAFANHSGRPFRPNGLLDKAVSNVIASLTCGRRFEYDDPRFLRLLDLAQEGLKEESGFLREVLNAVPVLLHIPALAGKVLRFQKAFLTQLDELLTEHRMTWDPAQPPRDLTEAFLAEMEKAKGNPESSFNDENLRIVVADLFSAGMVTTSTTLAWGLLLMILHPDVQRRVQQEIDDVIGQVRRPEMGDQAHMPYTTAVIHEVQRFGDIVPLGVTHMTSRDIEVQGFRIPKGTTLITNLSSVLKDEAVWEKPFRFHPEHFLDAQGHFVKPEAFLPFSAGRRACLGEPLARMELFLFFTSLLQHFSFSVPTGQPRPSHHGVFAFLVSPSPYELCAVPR

## O=C(O)c1ccc(-n2cc(C(=O)c3c(Cl)cccc3Cl)c3ccccc32)c(F)c1
[1]
  Cmax: 5.7 µM
[2]
  Tmax: 0.5 h
[3]
  AUC(0-t) at 24 h: 9.1 µM·h
[4]
  Vd: 2.8 L/kg
[5]
  clearance: 21.2 mL/min/kg
[6]
  half-life: 1.8 h
[7]
  bioavailability: 52%
[8]
  pIC50: < 4.52
[9]
  remaining at 0.5 h, 1 µM: 91%
[10]
  remaining at 0.5 h, 1 µM: 51%
[11]
  remaining at 0.5 h, 1 µM: 92%

## O=C(O)c1ccc(-n2cc(C(=O)c3c(Cl)cccc3C(F)(F)F)c3c(F)cccc32)c(F)c1
[12]
  pIC50: 7.80
Cytochrome P450 1A2
  pIC50: < 4.30
Cytochrome P450 2C9
  pIC50: 4.69
Cytochrome P450 2C19
  pIC50: < 4.30
Cytochrome P450 2D6
  pIC50: < 4.30
[1]
  Cmax: 17.5 µM
[2]
  Tmax: 0.5 h
[3]
  AUC(0-t) at 24 h: 46.5 µM·h
[4]
  Vd: 1 L/kg
[5]
  clearance: 4.6 mL/min/kg
[6]
  half-life: 2.7 h
[7]
  bioavailability: 62%
[8]
  pIC50: < 4.52
[9]
  remaining at 0.5 h, 1 µM: 78%
[10]
  remaining at 0.5 h, 1 µM: 76%
[11]
  remaining at 0.5 h, 1 µM: 100%

## O=C(O)c1ccc(-n2cc(C(=O)c3c(Cl)cccc3Cl)c3cccnc32)c(F)c1
[12]
  pIC50: 7.49
Cytochrome P450 1A2
  pIC50: < 4.30
Cytochrome P450 2C9
  pIC50: 4.80
Cytochrome P450 2C19
  pIC50: < 4.30
Cytochrome P450 2D6
  pIC50: < 5.00
Cytochrome P450 3A4 [13]
  pIC50: < 4.30
[14]
  solubility: < 1 µM
[15]
  solubility: < 1 µM
[16]
  solubility: > 2000 µM
[9]
  remaining at 0.5 h, 1 µM: 92%
[10]
  remaining at 0.5 h, 1 µM: 90%
[11]
  remaining at 0.5 h, 1 µM: 100%

## O=C(O)c1ccc(-n2cc(C(=O)c3c(Cl)cccc3C(F)(F)F)c3ccccc32)cc1
Cytochrome P450 1A2
  pIC50: < 4.60
Cytochrome P450 2C9
  pIC50: 4.80
Cytochrome P450 2C19
  pIC50: < 4.30
Cytochrome P450 2D6
  pIC50: < 4.30
Cytochrome P450 3A4 [17]
  pIC50: 4.43
Cytochrome P450 3A4 [13]
  pIC50: < 4.30
[14]
  solubility: 10 µM (≈ 4.44 µg/mL)
[15]
  solubility: 1 µM (≈ 0.444 µg/mL)
[16]
  solubility: 1470 µM (≈ 654 µg/mL)
[9]
  remaining at 0.5 h, 1 µM: 100%
[10]
  remaining at 0.5 h, 1 µM: 95%
[11]
  remaining at 0.5 h, 1 µM: 100%

## O=C(O)c1ccc(-n2cc(C(=O)c3c(F)cccc3Cl)c3ccccc32)cc1
[18]
  pIC50: 7.70
[12]
  pIC50: 6.70
Cytochrome P450 1A2
  pIC50: 4.02
Cytochrome P450 2C9
  pIC50: 5.05
Cytochrome P450 2C19
  pIC50: < 4.00
Cytochrome P450 2D6
  pIC50: < 4.00
Cytochrome P450 3A4 [17]
  pIC50: < 4.00
[9]
  remaining at 0.5 h, 1 µM: 100%
[10]
  remaining at 0.5 h, 1 µM: 100%
[11]
  remaining at 0.5 h, 1 µM: 100%

## O=C(O)c1ccc(-n2cc(C(=O)c3c(Cl)cccc3C(F)(F)F)c3cccnc32)c(F)c1
[12]
  pIC50: 7.82
Cytochrome P450 1A2
  pIC50: < 4.30
Cytochrome P450 2C9
  pIC50: 4.76
Cytochrome P450 2C19
  pIC50: < 4.30
Cytochrome P450 2D6
  pIC50: < 4.30
Cytochrome P450 3A4 [13]
  pIC50: < 4.30
[1]
  Cmax: 12.1 µM
[2]
  Tmax: 0.5 h
[3]
  AUC(0-t) at 24 h: 35.1 µM·h
[4]
  Vd: 2.4 L/kg
[5]
  clearance: 11 mL/min/kg
[6]
  half-life: 3.2 h
[7]
  bioavailability: 100%
[8]
  pIC50: < 4.52
[9]
  remaining at 0.5 h, 1 µM: 87%
[10]
  remaining at 0.5 h, 1 µM: 73%
[11]
  remaining at 0.5 h, 1 µM: 100%

## O=C(O)c1ccc(-n2cc(C(=O)c3c(Cl)cccc3Cl)c3c(F)cccc32)cc1
[18]
  pIC50: 7.60
[12]
  pIC50: 7.12
Cytochrome P450 1A2
  pIC50: < 4.30
Cytochrome P450 2C9
  pIC50: < 4.30
Cytochrome P450 2C19
  pIC50: < 4.30
Cytochrome P450 2D6
  pIC50: < 4.30
Cytochrome P450 3A4 [17]
  pIC50: < 4.30
Cytochrome P450 3A4 [13]
  pIC50: 4.31
[14]
  solubility: < 1 µM
[15]
  solubility: < 1 µM
[16]
  solubility: > 2000 µM
[9]
  remaining at 0.5 h, 1 µM: 100%
[10]
  remaining at 0.5 h, 1 µM: 78%
[11]
  remaining at 0.5 h, 1 µM: 100%

## O=C(O)c1ccc(-n2cc(C(=O)c3c(Cl)cccc3Cl)c3cccnc32)cc1
[18]
  pIC50: 7.70
[12]
  pIC50: 6.98
[14]
  solubility: 1 µM (≈ 0.411 µg/mL)
[15]
  solubility: 3 µM (≈ 1.23 µg/mL)
[16]
  solubility: 407 µM (≈ 167 µg/mL)
[9]
  remaining at 0.5 h, 1 µM: 100%
[10]
  remaining at 0.5 h, 1 µM: 100%
[11]
  remaining at 0.5 h, 1 µM: 100%
